Measurements: article PMC4201147 (Frontiers in Chemistry, 2014)
Entries after “also recorded” stand apart in the source; their conditions may differ. Read-outs that look alike come from different tables or passages of the source. Blank lines part the entries; values can stand above or below the molecule they belong to. Positions of bridges follow the written chain, without caps; N, C: chain ends. Non-standard residues stand in square brackets, D forms with d. Residues, ends and D or L forms follow the SMILES beside them. Chains are numbered I, II in the order given. No end group written: not given here. Ac6c = NC1(C(=O)O)CCCCC1; Dab = NCC[C@H](N)C(=O)O; Nva = CCC[C@H](N)C(=O)O

Key:
MCF-7 cells = test: Agonistic activity screening of targeted peptide library in MCF-7 cells; assay type: cell-based; details: biological activity screening in MCF-7 cells, targeted agonist library
Source text: Based on the success of our first-in-class AdipoR agonist ADP355 and recognizing the need for a similar AdipoR antagonist, we modified the composition of ADP355 to attenuate AdipoR functions and signaling. The starting point of the design was the activity of the 396-member peptide library we made earlier and from which the ADP355 agonist was selected, and a new central hexamer named peptide 3–8 (Table 2). […] While Pro1 in the C-terminal octamer (Pro3 in ADP355) is replaceable, Gly2, Tyr4, Phe6, Ala7, and DSer8 should be kept for binding. Because Nva3 recovers activation, Leu, the original amino acid in native adiponectin, should be used in this position. […] In the new antagonist Pro1 was replaced with 1-amino-cyclohexane carboxylic acid (Chex1), extremely useful as an N-terminal cyclic aliphatic amino acid mimic in designer antibacterial peptides (Cudic et al., [2002]). These considerations led to derivative 400 (ADP400), H-Chex-Gly-Leu-Tyr-DSer-Phe-Ala-DSer-NH2 (we called it Chex-DSer-8), as a potential AdipoR antagonist (Tables 1, 2).

MCF-7 BC cells [1] = test: MCF-7 BC cell proliferation, 3-day growth inhibition/promotion by cell count; assay type: cell-based
Experimental: (§1) MCF-7 BC and K562 chronic myeloid leukemia (CML) cells were grown in standard RPMI 1640 medium. Seventy-five thousand MCF-7 and 100,000 K-562 cells grown in RPMI 1640 medium containing 10% fetal bovine serum (FBS, for MCF-7) or 0.5% bovine serum albumin (BSA, for K562) were seeded into wells of 24-well culture plates. After 24 h, MCF-7 cells were shifted to K562 medium (serum free). After an additional 24 h, the cultures were treated with various concentrations of peptides or a mixture of peptides for 72 h and counted. The assays were done in triplicates and repeated twice from different cell preparations. The cell numbers were expressed as means ± standard error (SE). Statistical analysis was done with a SlideWrite graphical software package (Encinitas, USA).

MCF-7 BC cells [2] = details: ADP400 100 nM with ADP355 100 nM; p = 0.003
[3] = tested on: K562 chronic myeloid leukemia (CML) cells; test: K562 CML cell proliferation, 3-day growth inhibition by cell count; assay type: cell-based, human
Experimental: as §1

[4] = Aggregation / precipitation observed during assays; assay type: physicochemical; details: during serum stability assay procedure (mouse serum, TCA precipitation) or under the authors' experimental conditions
Experimental: (§2) For serum stability studies (Powell et al., [1993]) 10 μL of an aqueous peptide stock solution (3 mg/mL) was added to 390 μL pooled mouse serum in triplicate. The peptide-serum mixtures were thermostated at 37°C. After 0, 30, 120, and 240 min, 95 μL aliquots were mixed with 25 μL trichloroacetic acid (15%, w/v) and incubated for 10 min on ice. The precipitated proteins were separated by centrifugation (5 min, 12,000 × g, Eppendorf MiniSpin). The supernatant (90 μL) was neutralized with 8.5 μL aqueous sodium hydroxide solution (1 M) and mixed with 3% aqueous acetonitrile containing 0.1% TFA (121.5 μL). After centrifugation (5 min, 12,000 × g, Eppendorf MiniSpin) a 100 μL solution was analyzed by RP-HPLC using a Jupiter C18 column (2.0 mm inner diameter, 150 mm length, 5 μm particle size, 30 nm pore size; Phenomenex, Torrance) on a Beckman Gold HPLC System at 60°C. The gradient from 0.1% TFA in water (eluent A) to 60% acetonitrile in 0.1% aqueous TFA (eluent B) was developed using 1% B/min and the amide bond was monitored at 214 nm.

Serum stability = assay type: in vitro ADME; details: undiluted pooled mouse serum, RP-HPLC at 214 nm, triplicate; for half-life at 0.075 mg/mL: 10 μL of 3 mg/mL peptide in 390 μL serum, 37°C, 0, 30, 120, 240 min, TCA precipitation
Experimental: as §2

normal mice = details: up to a 10 mg/kg bolus intraperitoneal (ip) dose; ref Otvos et al., 2011a; cited from earlier work
Source text: In 2011 we reported on the identification of the adiponectin active site and the design and functional characterization of adiponectin-based peptide compounds for the activation of AdipoR using glioma and breast cancer (BC) model systems (Otvos et al., [2011a]). The lead peptide, the 10-mer ADP355, primarily acts through AdipoR1 and induces typical adiponectin signaling pathways in cancer cells (Otvos et al., [2011a]).

[5] = estimated from degradation kinetics in diluted mouse serum; ref Otvos et al., 2011a; cited from earlier work
Source text: Peptide ADP355 (355) is remarkably stable in mouse serum (Otvos et al., [2011a]). […] This stability level is quite high among peptide therapeutics, and is li ...

pooled mouse serum = details: 37°C, up to 240 min
[6] = tested on: K562 chronic myeloid leukemia (CML) cells; details: compared to unrelated human serum albumin; ref Yokota et al., 2000; cited from earlier work
Source text: The cellular models used here were selected among those known to express AdipoR, involve adiponectin in biological responses and yield reproducible results in our hands. Adiponectin protein has been linked to leukemia, lymphoma, and myeloma in individuals with above-average BMI (Obeid and Hebbard, [2012]). Human-origin K562 CML cells express both AdipoR forms although at relatively low levels (Ozturk et al., [2012]).

Molecule: NIPGLYYFAY [compound 25]
Agonistic activity (MCF-7 cells): Normal

Molecule: NIPGLY[dS]FAY [compound 223, member of targeted agonist library]
Agonistic activity (MCF-7 cells): Weakest among P25 analogs

Molecule: [dN]IPGLYGFA[dS] [compound 91, member of targeted agonist library]
Agonistic activity (MCF-7 cells): Normal

Molecule: HCN[Nva]PGLYYF [compound 156, member of targeted agonist library]
Agonistic activity (MCF-7 cells): None

Molecule: HCN[Nva]PG[Nva]YYF [compound 288, member of targeted agonist library]
Agonistic activity (MCF-7 cells): Reduced

Molecule: CC(C)C[C@H](NC(=O)CNC(=O)C1(N)CCCCC1)C(=O)N[C@@H](Cc1ccc(O)cc1)C(=O)N[C@H](CO)C(=O)N[C@@H](Cc1ccccc1)C(=O)N[C@@H](C)C(=O)N[C@H](CO)C(N)=O [ADP400] (H-[Ac6c]GLY[dS]FA[dS]-NH2)
effect on MCF-7 cell growth without ADP355 present (MCF-7 BC cells [1]; 100 nM, alone, compared with co-treatment, which reached the growth level of 10 nM leptin): promoted cell growth to an identical degree
effect on ADP355-induced MCF-7 growth inhibition (MCF-7 BC cells [2]): completely ameliorated

IC50 ([3]; 72 h): 0.3 µM
aggregation / precipitation ([4]; listed as cyclic dimer): precipitated during the assay procedure
Molecule: CCC[C@@H]1NC(=O)[C@@H]2CCCN2C(=O)[C@H]([C@@H](C)CC)NC(=O)[C@@H](CC(N)=O)NC(=O)[C@H](CC(=O)O)NC(=O)[C@H](Cc2c[nH]cn2)NC(=O)[C@@H](CO)NC(=O)[C@H](C)NC(=O)[C@H](Cc2ccccc2)NC(=O)[C@@H](CO)NC(=O)[C@H](Cc2ccc(O)cc2)NC(=O)[C@H](CC(C)C)NC(=O)[C@H](CCC)NC(=O)[C@@H]2CCCN2C(=O)[C@H]([C@@H](C)CC)NC(=O)[C@@H](CC(N)=O)NC(=O)[C@@H]2CCCN2C(=O)[C@H](Cc2c[nH]cn2)NC(=O)[C@@H](CO)NC(=O)[C@H](C)NC(=O)[C@H](Cc2ccccc2)NC(=O)[C@@H](CO)NC(=O)[C@H](Cc2ccc(O)cc2)NC(=O)[C@H](CC(C)C)NC1=O [compound 398]
concentration of maximal effect on K562 proliferation ([3]; K562, 3-day assay): 1 µM
aggregation / precipitation [4]: did aggregate during the serum stability assay

Molecule: PGLYYFAYHI [compound 26, member of targeted agonist library]
Agonistic activity (MCF-7 cells): Normal

Molecule: CCC[C@H](NC(=O)[C@@H]1CCCN1C(=O)[C@@H](NC(=O)[C@H](N)CC(N)=O)[C@@H](C)CC)C(=O)N[C@@H](CC(C)C)C(=O)N[C@@H](Cc1ccc(O)cc1)C(=O)N[C@H](CO)C(=O)N[C@@H](Cc1ccccc1)C(=O)N[C@@H](C)C(=O)N[C@H](CO)C(N)=O [ADP355] (H-[dN]IP[Nva]LY[dS]FA[dS]-NH2)
IC50 ([3]; K562, 72 h treatment, 10 nM–10 μM peptide, first assay, IC50 halfway between uninhibited growth and maximal growth inhibition, read-out: relative IC50, inhibition of K562 proliferation): 0.2 µM
half-life at 0.075 mg/mL (Serum stability): 3 h
toxic properties to normal mice (normal mice): no toxic properties
half-life in whole plasma (estimated) [5]: 1.25 h

half-life at 0.075 mg/mL (Serum stability): 0.917 h
remaining at 2 h, 0.075 mg/mL (Serum stability; 37°C, 2 h, read-out: intact peptide still present after 2 h incubation): 16%
Molecule: CCC[C@H](NC(=O)[C@@H]1CCCN1C(=O)[C@@H](NC(=O)[C@H](N)CC(N)=O)[C@@H](C)CC)C(=O)N[C@@H](CC(C)C)C(=O)N[C@@H](Cc1ccc(O)cc1)C(=O)N[C@H](CO)C(=O)N[C@@H](Cc1ccccc1)C(=O)N[C@@H](C)C(=O)N[C@H](CO)C(=O)N[C@@H](Cc1c[nH]cn1)C(=O)N1CCC[C@H]1C(=O)NCC[C@H](NC(=O)[C@@H]1CCCN1C(=O)[C@H](Cc1c[nH]cn1)NC(=O)[C@@H](CO)NC(=O)[C@H](C)NC(=O)[C@H](Cc1ccccc1)NC(=O)[C@@H](CO)NC(=O)[C@H](Cc1ccc(O)cc1)NC(=O)[C@H](CC(C)C)NC(=O)[C@H](CCC)NC(=O)[C@@H]1CCCN1C(=O)[C@@H](NC(=O)[C@H](N)CC(N)=O)[C@@H](C)CC)C(N)=O [ADP399] (I: H-[dN]IP[Nva]LY[dS]FA[dS]HP[Dab]-NH2 / II: H-[dN]IP[Nva]LY[dS]FA[dS]HP; amide I:13-II:C)

Molecule: leptin: Leptin protein, positive control for exogenous mitogen actions [reference compound]
promotion of MCF-7 cell growth (MCF-7 BC cells [1]; 10 nM, positive control for exogenous mitogen): 10%

Molecule: PGLYYF [3–8, new central hexamer]
Agonistic activity (MCF-7 cells): None

Molecule: HCNIPGLYYF [compound 24, member of targeted agonist library]
Agonistic activity (MCF-7 cells): Normal

Molecule: PGL[dS]YF[Nva]YHI [compound 290, member of targeted agonist library]
Agonistic activity (MCF-7 cells): None

cleaved bond (pooled mouse serum): Leu-Tyr; also recorded: Tyr-DSer
Molecule: (H-DAsn-Ile-Pro-Nva-Leu-Tyr-DSer-Phe-Ala-DSer-His-Pro)2-Dab-NH2 (branched)

Molecule: NIP[Nva]LYYFAY [compound 157, member of targeted agonist library]
Agonistic activity (MCF-7 cells): Increased

B1: adiponectin protein: full-sized adiponectin protein, 244 amino acid cytokine (protein, UniProt Q15848 1-244, looked up)
chain: MLLLGAVLLLLALPGHDQETTTQGPGVLLPLPKGACTGWMAGIPGHPGHNGAPGRDGRDGTPGEKGEKGDPGLIGPKGDIGETGVPGAEGPRGFPGIQGRKGEPGEGAYVYRSAFSVGLETYVTIPNMPIRFTKIFYNQQNHYDGSTGKFHCNIPGLYYFAYHITVYMKDVKVSLFKKDKAMLFTYDQYQENNVDQASGSVLLHLEVGDQVWLQVYGEGERNGLYADNDNDSTFTGFLLYHDTN
modifications: full-length
notes: full-sized adiponectin protein, 244 amino acid cytokine
inhibition of relative proliferation rate of K562 cells [6]: 9%
